One assay has as its system ischemia-induced brain. To be noted: administered after hypoxia; Ann. Thorac. Surg. 1994; cited from earlier work.
Assay [1] relates to Sprague Dawley rats. Put plainly: Morris water maze test (escape time to hidden platform). It counts as in vivo. The procedure:
In the Morris water maze test, each of the test animals was given four swimming trials per session per day for 4-5 days. When the escape latency of the test animal, that is, the time for the test animal to reach a hidden platform 2 cm below the surface of water, was shortened to about 10±2 seconds during the repeat of the learning sessions, a probe test was performed after 24 hours one time for 60 seconds without the platform.
In the present invention, the effect of formulated drugs on the improvement of learning and memory for spatial recognition of a normal test animal group (Sprague Dawley rats) was tested by administering the drugs to the test animals orally or through drinking water for 2, 3 or 4 weeks and performing a Morris water maze test at 2, 3 or 4 weeks after the drug administration.
(§1) In the Morris water maze test, each of the test animals was given four swimming trials per session per day for 4-5 days. When the escape latency of the test animal, that is, the time for the test animal to reach a hidden platform 2 cm below the surface of water, became shorter than 10±2 seconds during the repeat of the learning sessions, a probe test was performed after 24 hours one time for 60 seconds without the platform. The probe test was performed by removing the platform from the swimming pool and observing the swimming behavior of the test animals. In the probe test, as measures of spatial working memory, the retention time and movement distance of the test animals in the same area of a quadrant region including the position in which the platform was present during the first learning period were analyzed and compared with those of the control group.
Starting from 4 weeks of the administration, a Morris water maze test was performed at a given time point daily four times per day for 4 days to analyze the effect of each composition on the improvement of learning and memory for spatial recognition function of the test animals. As the test results are shown in FIG. 1(a) showing the escape time of each group.

Assay [2] has as its system Sprague Dawley rats. The assay is described as follows: probe test after Morris water maze learning (platform removed). The assay is classed as in vivo. The procedure:
as §1
At 5 days, that is, after 24 hours when the escape time for the learned test animals to reach the platform became an average of 10±2 seconds, the platform was removed and a probe test was performed one time. The test results are shown in FIG. 1(b) to analyze an improvement in learning and memory for spatial recognition functions.

For assay [3] the following is noted: administered for 1 week; Jpn J Psychiatry Neurol 1991; cited from earlier work.
Another assay concerns cerebral cortex. Particulars: normal persons; Saarma J. et al. 1975; cited from earlier work.
Setting [4] is: fumaric acid 100 mg/kg with Tween80 100 mg/kg (FA100Tw100 group), drinking water 4 weeks, vs Tw50 control.

For `O=C(O)/C=C/C(=O)O` [fumaric acid], the nerve protective effect entry with ischemia-induced brain was “nerve protective effects”. In addition, in the assay with Sprague Dawley rats [1] (setting [4]), the “improvement of learning (escape time)” value was “significant (p<0.05) effect on the improvement of both learning and working memory”. Further, the “effect on the improvement of learning and memory” value with Sprague Dawley rats [1] (fumaric acid given with Tween80 (FA50Tw50, FA100Tw100 groups) through drinking water 4 weeks, vs Tw50 control) is “dose-dependent effect on the improvement of learning and memory”. Also, the “improvement of working memory” value with Sprague Dawley rats [2] (setting [4]) is “significant (p<0.05) effect on the improvement of both learning and working memory”.
On to `CN(C)CCCN1c2ccccc2CCc2ccccc21` [imipramine], for which the antidepressant effect result in assay [3] is listed as “significant antidepressant effect”.
As for `O=C(O)CCC(=O)O` [succinic acid], the “learning ability in the Morris water maze test” value in the assay on Sprague Dawley rats [1] (succinic acid 100 mg/kg with Span80 200 mg/kg (SA100Sp200 group), drinking water 3 weeks, session 4, P<0.001 vs DW control, Mann Whitney U test) is recorded as “significant increase in learning ability”. In addition, the “working memory in the probe test” value with Sprague Dawley rats [2] (succinic acid 100 mg/kg with Span80 200 mg/kg (SA100Sp200 group), drinking water 3 weeks, vs DW control) is on record as “insignificant (P=0.089) improvement in working memory”.
For the compound `O=CCCC(=O)O` [SSA, succinic semialdehyde, reference compound], the “excitability of the cerebral cortex” value in the assay on cerebral cortex is recorded as “enhances the excitability of the cerebral cortex”.
As for `O=C(O)CCC(=O)O` [SS, sodium succinate], the “excitability of the cerebral cortex” value in the assay on cerebral cortex is “stabilizes the excitability of the cerebral cortex”.

The values above are taken from patent US20090047369A1, “Composition Comprising 4-Carbon Dicarboxlic Acids for Improvement of Memory Function” (Eubioslab Co., Ltd, priority 2006, published 2009).
